Reference: patent US8377915B2, “Methods for treating or preventing disorders using ecdysteroid compositions” (Rutgers, The State University of New Jersey, priority 2006, dated 2013)

Legend:
Type in all cases: cell-based
mouse growth hormone [1] = assay: Real Time RT-PCR of growth hormone expression in TM3 cells; conditions: for effect on growth hormone expression (in words): TM3; for Growth Hormone Expression relative to Control: TM3, 1 μM; for change in growth hormone expression over time (in words): TM3, treated 20 minutes to 24 hours
Procedure: (§1) A mouse Leydig cell line, TM3, (ATCC) was seeded between 5 and 20 passages at a density of 10^5 cells/cm^2 onto 10 cm tissue culture plates. The cells were grown in F12/DME media supplemented with 5% horse serum, 2.5% fetal bovine serum, 100 U/ml penicillin, and 100 μg/ml streptomycin.
(§2) Cells were grown for 48 hours in 5% CO2 at 37° C. until they approached 80% confluency. Cells were washed with serum free DMEM and treated with either 1 μM […] (20HE), or methandrostenolone (synthetic anabolic steroid). Both compounds were dissolved in 70% ethanol and added to serum free media. Cells were incubated after treatment for 18 hours before RNA extraction.
(§3) Selected microarray results were verified by comparison with mRNA levels obtained by Real Time reverse transcription PCR (qRT-PCR). Selected gene-specific primer pairs were designed for the mouse growth hormone and glyceraldehyde-3-phosphate dehydrogenase genes using the Primer Express software, as shown in Table 3. Total RNA was isolated, DNase I-treated, and first-strand cDNA was synthesized using Stratascript reverse transcriptase with random primers. The PCR reactions were carried out using 500 ng of cDNA, 150 nM of each primer, and SYBR Green master mix in 25 μL reactions. Levels of quantitative reverse transcription product were measured using SYBR Green fluorescence collected during real-time PCR on a Stratagene MXP3000 sequence detection system. A control cDNA dilution series was created for each gene to establish a standard curve. Reverse transcriptase was excluded from control samples to identify potential genomic contamination. Each reaction was subjected to melting point analysis to confirm single amplified products. The data generated from each PCR were analyzed using MXP 3000 software.
(§4) Quantitative real time PCR was used to verify the microarray results for growth hormone. RNA samples from each treatment were reverse-transcribed into cDNA and amplified using real time PCR. Values for growth hormone were normalized to values obtained for the housekeeping gene, glyceraldehyde-3-phosphate dehydrogenase, and the ratios of the two treatments were calculated. In both the C2C12 and TM3 cell lines differential expression was qualitatively confirmed.
(§5) Using the ΔΔCt method, relative expression was calculated.
To further investigate the effects of 20-HE, the TM3 leydig cell line was treated for varying intervals, from 20 minutes to 24 hours, with either 20-HE or methandrostenolone. Growth hormone expression was than analyzed using real time PCR as mentioned earlier.

[2] = test system: C2C12 mouse skeletal muscle cell line; assay: cDNA microarray comparison of transcription, 20HE vs methandrostenolone, C2C12 cells; conditions: 18 hours
Procedure: (§6) A transcriptome approach utilizing cDNA microarray was implemented to observe the unique effects of ecdysteroids. Microarray analyses was developed and implemented to discern the transcriptional differences between ecdysteroids and anabolic steroids.
(§7) A mouse skeletal muscle cell line, C2C12, (ATCC) was seeded between 4 and 20 passages at a density of 10^5 cells/cm^2 onto 10 cm tissue culture plates. The cells were grown in DMEM supplemented with 10% Fetal Bovine Serum, 10 mM HEPES, 6 mM Glutamine, 1 mM pyruvate, 100 U/ml penicillin, and 100 ug/ml streptomycin.
as §2
(§8) RNA was extracted and purified from C2C12 myoblasts and TM3 Leydig tumor line cells using an RNeasy kit according to the manufacturer's instructions (Qiagen). RNA concentration and purity were assessed using a spectrophotometer. All RNA samples used had 260/280 ratios greater than 1.9.
(§9) A collection of 21,900 oligonucleotides was purchased from Compugen, Inc. Microarrays were printed on poly-L-lysine-coated glass slides using an OmniGrid microarrayer (GeneMachines, San Carlos, Calif.) and quill-type printing pins (Telichem, Sunnyvale, Calif.) following standard procedures. Fluorescent probes were prepared from 5 μg of total cellular RNA using the Genisphere 3DNA dendrimer system (Genisphere, Inc., Montvale, N.J.). Two separate microarrays, one for each cell line, were run. The ecdysone treated RNA sample was labeled with Cy3 and the methandrostenelone treated RNA sample was labeled with Cy5 in a parallel reaction, mixed, and hybridized to the chips. Automated microarray hybridization and washing were performed using a Ventana Discovery System. The sequence-tagged target was hybridized for 12 hours at 58° C., and microarrays were washed twice in […] for 10 minutes at 55° C. and once in […] for 2 minutes at 42° C. Florescent dendrimer was then applied and incubated at 55° C. for 2 hours. The microarrays were then washed with […] and spin-dried, followed by scanning on an Axon GenePix 4000B. Image files were processed using Axon GenePix 4.0 software, resulting in text files containing median fluorescence intensities as well as median local backgrounds. Normalized data were imported along with spot flag information into GeneSpring where the ratios were calculated.

[3] = test system: TM3 mouse Leydig cell line; assay: cDNA microarray comparison of transcription, 20HE vs methandrostenolone, TM3 cells; conditions: 18 hours
Procedure: as §6, §1, §2, §8, §9

mouse growth hormone [4] = assay: Real Time RT-PCR of growth hormone expression in C2C12 cells; conditions: for effect on growth hormone expression (in words): C2C12; for Growth Hormone Expression relative to Control: C2C12, 1 μM, Real Time RT-PCR, normalized to GAPDH
Procedure: as §7, §2, §3, §4, §5

[5] = Real Time RT-PCR, normalized to GAPDH

CC(C)(O)CC[C@@H](O)[C@](C)(O)[C@H]1CC[C@@]2(O)C3=CC(=O)[C@@H]4C[C@@H](O)[C@@H](O)C[C@]4(C)[C@H]3CC[C@]12C [20-Hydroxyecdysone, 20-hydroxyecdysone]
effect on growth hormone expression (in words) (mouse growth hormone [1]): increased expression of GH
Growth Hormone Expression relative to Control (mouse growth hormone [1]; [5]): 7.1 ± 1.2
Growth Hormone Expression relative to Control (mouse growth hormone [1]; incubation time 20 m): 0.9
Growth Hormone Expression relative to Control (mouse growth hormone [1]; incubation time 45 m): 3.5
Growth Hormone Expression relative to Control (mouse growth hormone [1]; incubation time 1 hr): 7.3
Growth Hormone Expression relative to Control (mouse growth hormone [1]; incubation time 2 hr): 6.9
Growth Hormone Expression relative to Control (mouse growth hormone [1]; incubation time 4 hr): 7.2
Growth Hormone Expression relative to Control (mouse growth hormone [1]; incubation time 24 hr): 7
change in growth hormone expression over time (in words) (mouse growth hormone [1]): increased growth hormone expression over time, beginning after 45 minute and remaining increased after 24 hours
20E/D Expr: Annexin A5 ([2]; C2C12, 1 μM, expression ratio 20HE to methandrostenolone, LL 11747): 11.90
20E/D Expr: Cholecystokinin ([2]; C2C12, 1 μM, expression ratio 20HE to methandrostenolone, LL 12424): 0.010
20E/D Expr: Fas death domain-associated protein ([2]; C2C12, 1 μM, expression ratio 20HE to methandrostenolone, LL 13163): 0.010
20E/D Expr: Fibroblast growth factor 11 ([2]; C2C12, 1 μM, expression ratio 20HE to methandrostenolone, LL 14166): 0.010
20E/D Expr: Growth hormone ([2]; C2C12, 1 μM, expression ratio 20HE to methandrostenolone, LL 14599): 3.163
20E/D Expr: Histocompatibility 2, D region locus 1 ([2]; C2C12, 1 μM, expression ratio 20HE to methandrostenolone, LL 14964): 6.771
20E/D Expr: Hexokinase 2 ([2]; C2C12, 1 μM, expression ratio 20HE to methandrostenolone, LL 15277): 0.010
20E/D Expr: mago-nashi homolog, proliferation-associated ([2]; C2C12, 1 μM, expression ratio 20HE to methandrostenolone, LL 17149): 3.708
20E/D Expr: Insulin receptor-related receptor ([2]; C2C12, 1 μM, expression ratio 20HE to methandrostenolone, LL 23920): 0.020
genes down-regulated more than two fold as compared to methandrostenolone ([2]; C2C12, microarray, 1 μM): 479 genes
genes up-regulated more than 2-fold as compared to methandrostenolone ([2]; C2C12, microarray, 1 μM): 278 genes
increase of growth hormone expression more than methandrostenolone ([2]; C2C12, microarray, 1 μM): 3.2 times
20E/D Expr: Growth hormone ([3]; TM3, 1 μM, expression ratio 20HE to methandrostenolone, LL 14599): 7.006
20E/D Expr: Insulin II ([3]; TM3, 1 μM, expression ratio 20HE to methandrostenolone, LL 16334): 0.262
20E/D Expr: Nuclear receptor subfamily 4, group A, member 2 ([3]; TM3, 1 μM, expression ratio 20HE to methandrostenolone, LL 18227): 0.010
20E/D Expr: Chemokine (C-C motif) ligand 20 ([3]; TM3, 1 μM, expression ratio 20HE to methandrostenolone, LL 20297): 11.89
20E/D Expr: Signal transducer and activator of transcription 1 ([3]; TM3, 1 μM, expression ratio 20HE to methandrostenolone, LL 20846): 0.052
20E/D Expr: Steroid sulfatase ([3]; TM3, 1 μM, expression ratio 20HE to methandrostenolone, LL 20905): 4.611
20E/D Expr: Insulin receptor-related receptor ([3]; TM3, 1 μM, expression ratio 20HE to methandrostenolone, LL 23920): 0.022
20E/D Expr: Osteomodulin ([3]; TM3, 1 μM, expression ratio 20HE to methandrostenolone, LL 27047): 0.010
20E/D Expr: Ndufs3 ([3]; TM3, 1 μM, expression ratio 20HE to methandrostenolone, LL 68349): 4.741
genes down-regulated more than 2 fold as compared to methandrostenolone ([3]; TM3, microarray, 1 μM): 341 genes
genes up-regulated more than 2 fold as compared to methandrostenolone ([3]; TM3, microarray, 1 μM): 287 genes
increase of growth hormone expression more than methandrostenolone ([3]; TM3, microarray, 1 μM): 7.0 times
effect on growth hormone expression (in words) (mouse growth hormone [4]): increased expression of GH
Growth Hormone Expression relative to Control (mouse growth hormone [4]): 3.9 ± 0.9

C[C@]12C=CC(=O)C=C1CC[C@@H]1[C@@H]2CC[C@@]2(C)[C@H]1CC[C@]2(C)O [Methandrostenolone, methandrostenolone, reference compound]
effect on growth hormone expression (in words) (mouse growth hormone [1]): little or no effect
Growth Hormone Expression relative to Control (mouse growth hormone [1]; [5]): 2.3 ± 1.4
Growth Hormone Expression relative to Control (mouse growth hormone [1]; incubation time 20 m): 1.2
Growth Hormone Expression relative to Control (mouse growth hormone [1]; incubation time 45 m): 1.9
Growth Hormone Expression relative to Control (mouse growth hormone [1]; incubation time 1 hr): 2.5
Growth Hormone Expression relative to Control (mouse growth hormone [1]; incubation time 2 hr): 1.7
Growth Hormone Expression relative to Control (mouse growth hormone [1]; incubation time 4 hr): 2.1
Growth Hormone Expression relative to Control (mouse growth hormone [1]; incubation time 24 hr): 2.3
change in growth hormone expression over time (in words) (mouse growth hormone [1]): very little change
effect on growth hormone expression (in words) (mouse growth hormone [4]): little or no effect
Growth Hormone Expression relative to Control (mouse growth hormone [4]): 0.8 ± 0.5
